Laboratory results reported in ChEMBL document CHEMBL1201862, “PubChem BioAssay data set” (2004).
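Briefly, cells in 96-well plates were exposed to five compound concentrations for 48 h, and endpoints were estimated by linear interpolation. GI50: concentration for 50% inhibition of growth.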 Active and inactive are the calls of the source. Rule as the data show it: active = GI50 up to about 1.1 µM and inactive = higher.

Legend:
Test in all cases: DTP human tumour cell line panel, 48 h
786-0 = test system: 786-0
COLO 205 = test system: COLO 205
DMS-114 = test system: DMS-114
HCT-116 = test system: HCT-116
HT-29 = test system: HT-29
LOX IMVI = test system: LOX IMVI
Malme-3M = test system: Malme-3M
OVCAR-5 = test system: OVCAR-5
OVCAR-8 = test system: OVCAR-8
RPMI-8226 = test system: RPMI-8226
SF-295 = test system: SF-295
SK-MEL-28 = test system: SK-MEL-28
UACC-257 = test system: UACC-257
UO-31 = test system: UO-31
NCI-H522 = test system: NCI-H522
SF-539 = test system: SF-539
SNB-78 = test system: SNB-78
Hs-578T = test system: Hs-578T
MCF7 = test system: MCF7
PC-3 = test system: PC-3

Measured: GI50

COC(=O)C(Br)C1CCc2ccccc21 (centres undefined)
inactive: 786-0 > 100 µM | COLO 205 > 100 µM | DMS-114 > 100 µM | HCT-116 > 100 µM | HT-29 > 100 µM | LOX IMVI > 100 µM | Malme-3M > 100 µM | OVCAR-5 > 100 µM | OVCAR-8 > 100 µM | RPMI-8226 71.9 µM | SF-295 52.6 µM | SK-MEL-28 > 100 µM | UACC-257 > 100 µM | UO-31 > 100 µM

CC(=O)c1ccccc1NC(=O)C(=O)C(C(=O)c1ccccc1-c1ccccc1)C1OC(=O)c2ccccc21 (centres undefined)
inactive: 786-0 18.6 µM | COLO 205 23.2 µM | HCT-116 17.8 µM | HT-29 26.9 µM | LOX IMVI 18.7 µM | Malme-3M 15.5 µM | NCI-H522 14.7 µM | OVCAR-5 29.2 µM | OVCAR-8 19.1 µM | RPMI-8226 27.3 µM | SF-295 22.2 µM | SF-539 17.8 µM | SNB-78 30.4 µM | UACC-257 15.7 µM | UO-31 18.2 µM

N#CCC(=O)Nc1cccc(C(F)(F)F)c1
inactive: 786-0 > 100 µM | COLO 205 > 100 µM | HCT-116 > 100 µM | HT-29 > 100 µM | LOX IMVI > 100 µM | Malme-3M > 100 µM | NCI-H522 > 100 µM | OVCAR-5 > 100 µM | OVCAR-8 > 100 µM | SF-295 > 100 µM | SF-539 > 100 µM | SK-MEL-28 > 100 µM | SNB-78 > 100 µM | UACC-257 > 100 µM | UO-31 > 100 µM

Oc1nc2cc3nc(O)c(O)nc3cc2nc1O
inactive: 786-0 > 100 µM | COLO 205 > 100 µM | HCT-116 > 100 µM | HT-29 > 100 µM | Hs-578T > 100 µM | LOX IMVI > 100 µM | MCF7 > 100 µM | Malme-3M > 100 µM | NCI-H522 > 100 µM | OVCAR-5 > 100 µM | OVCAR-8 > 100 µM | PC-3 > 100 µM | RPMI-8226 > 100 µM | SF-295 > 100 µM | SF-539 > 100 µM | SK-MEL-28 > 100 µM | UACC-257 > 100 µM | UO-31 > 100 µM

CC(C)C1=CC(=O)C(C)(C2=NC(C)(C)CO2)c2ccccc21 (centres undefined)
inactive: 786-0 > 100 µM | COLO 205 > 100 µM | DMS-114 51.4 µM | HCT-116 > 100 µM | HT-29 > 100 µM | Malme-3M > 100 µM | NCI-H522 32.9 µM | OVCAR-8 > 100 µM | RPMI-8226 78.2 µM | SF-295 > 100 µM | SF-539 > 100 µM | SK-MEL-28 > 100 µM | UACC-257 63.8 µM | UO-31 61.2 µM

O=C1NC(N2CCCCC2)=N/C1=C\c1ccccc1O
inactive: 786-0 > 100 µM | COLO 205 > 100 µM | HCT-116 > 100 µM | HT-29 > 100 µM | Hs-578T 77.3 µM | LOX IMVI > 100 µM | MCF7 > 100 µM | Malme-3M 23 µM | NCI-H522 19.8 µM | OVCAR-5 > 100 µM | OVCAR-8 > 100 µM | PC-3 > 100 µM | RPMI-8226 > 100 µM | SF-295 > 100 µM | SF-539 37.1 µM | SK-MEL-28 > 100 µM | UACC-257 > 100 µM | UO-31 > 100 µM

O=[N+]([O-])c1cc(-c2nnc(S)[nH]2)ccc1O
inactive: 786-0 > 100 µM | COLO 205 20.1 µM | DMS-114 32.4 µM | HCT-116 > 100 µM | HT-29 > 100 µM | LOX IMVI > 100 µM | Malme-3M > 100 µM | OVCAR-5 > 100 µM | SF-295 > 100 µM | SF-539 > 100 µM | SK-MEL-28 > 100 µM | SNB-78 > 100 µM | UACC-257 > 100 µM | UO-31 > 100 µM

Cc1cccc(Br)[n+]1[O-]
inactive: 786-0 > 100 µM | COLO 205 > 100 µM | HCT-116 > 100 µM | HT-29 > 100 µM | Hs-578T > 100 µM | LOX IMVI > 100 µM | MCF7 > 100 µM | Malme-3M > 100 µM | NCI-H522 > 100 µM | OVCAR-5 > 100 µM | OVCAR-8 > 100 µM | PC-3 > 100 µM | RPMI-8226 > 100 µM | SF-295 > 100 µM | SF-539 > 100 µM | SK-MEL-28 > 100 µM | UACC-257 > 100 µM | UO-31 > 100 µM

O=C1C2=C(c3ccccc31)C(c1ccc([N+](=O)[O-])cc1)NC(S)=N2 (centres undefined)
inactive: 786-0 > 100 µM | COLO 205 > 100 µM | DMS-114 36.8 µM | HCT-116 38.5 µM | HT-29 > 100 µM | Malme-3M 80.7 µM | NCI-H522 30.5 µM | OVCAR-5 > 100 µM | OVCAR-8 > 10 µM | RPMI-8226 30.2 µM | SF-295 58.6 µM | SF-539 > 100 µM | SK-MEL-28 59.3 µM | UACC-257 > 100 µM | UO-31 31.8 µM

O=CC[C@H]1C(=O)C[C@@H]2CCC[C@@H]21
inactive: 786-0 > 100 µM | COLO 205 > 100 µM | HCT-116 37.2 µM | HT-29 94 µM | Malme-3M > 100 µM | NCI-H522 > 100 µM | OVCAR-5 > 100 µM | OVCAR-8 43.1 µM | RPMI-8226 42.4 µM | SF-295 > 100 µM | SF-539 50.1 µM | SK-MEL-28 > 100 µM | SNB-78 > 100 µM | UACC-257 > 100 µM

COc1ccc(N2C(=O)CC(=O)N(NC(=O)C(C)Oc3ccccc3C)C2=S)cc1 (centres undefined)
inactive: 786-0 > 100 µM | COLO 205 > 100 µM | HCT-116 > 100 µM | HT-29 > 100 µM | Hs-578T > 100 µM | LOX IMVI > 100 µM | MCF7 > 100 µM | Malme-3M > 100 µM | NCI-H522 > 100 µM | OVCAR-5 > 100 µM | OVCAR-8 > 100 µM | PC-3 > 100 µM | RPMI-8226 > 100 µM | SF-295 > 100 µM | SF-539 > 100 µM | SK-MEL-28 > 100 µM | UACC-257 > 100 µM | UO-31 > 100 µM

[N-]=[N+]=C(C(=O)C(=[N+]=[N-])C(=O)c1ccccc1)C(=O)c1ccccc1
inactive: 786-0 > 100 µM | COLO 205 > 100 µM | HCT-116 > 100 µM | HT-29 > 100 µM | Hs-578T > 100 µM | LOX IMVI > 100 µM | MCF7 > 100 µM | Malme-3M > 100 µM | NCI-H522 > 100 µM | OVCAR-5 > 100 µM | OVCAR-8 > 100 µM | PC-3 > 100 µM | RPMI-8226 > 100 µM | SF-295 > 100 µM | SF-539 > 100 µM | SK-MEL-28 > 100 µM | UACC-257 > 100 µM | UO-31 65.5 µM

N#CC1(C#N)NC(c2ccsc2)C(C#N)(C#N)NC1c1ccsc1 (centres undefined)
inactive: 786-0 > 100 µM | COLO 205 > 100 µM | HCT-116 > 100 µM | HT-29 > 100 µM | Hs-578T > 100 µM | LOX IMVI > 100 µM | MCF7 > 100 µM | Malme-3M > 100 µM | NCI-H522 > 100 µM | OVCAR-5 > 100 µM | OVCAR-8 > 100 µM | PC-3 > 100 µM | RPMI-8226 > 100 µM | SF-295 > 100 µM | SF-539 > 100 µM | SK-MEL-28 > 100 µM | UACC-257 > 100 µM | UO-31 > 100 µM

CCOC(=O)COc1ccc(OCC(=O)OCC)c2c1C(=O)CCCC2=O
inactive: 786-0 > 100 µM | COLO 205 > 100 µM | DMS-114 > 100 µM | HCT-116 > 100 µM | HT-29 > 100 µM | LOX IMVI > 100 µM | Malme-3M > 100 µM | NCI-H522 > 100 µM | OVCAR-5 > 100 µM | OVCAR-8 > 100 µM | RPMI-8226 > 100 µM | SF-295 > 100 µM | SF-539 > 100 µM | SK-MEL-28 > 100 µM | UACC-257 > 100 µM | UO-31 > 100 µM

FC(F)(F)C1(c2ccccc2)SCc2nc3ccccc3n21 (centres undefined)
inactive: 786-0 > 100 µM | COLO 205 > 100 µM | HCT-116 65.5 µM | HT-29 62.5 µM | Hs-578T > 100 µM | LOX IMVI 97.5 µM | MCF7 > 100 µM | Malme-3M > 100 µM | NCI-H522 55.6 µM | OVCAR-5 > 100 µM | OVCAR-8 > 100 µM | PC-3 83.6 µM | RPMI-8226 70.5 µM | SF-295 > 100 µM | SF-539 > 100 µM | SK-MEL-28 > 100 µM | UACC-257 > 100 µM | UO-31 55.5 µM

COC(=O)C1=C(C(=O)OC)C2(c3ccccc3)c3ccccc3C(=O)C1N2C1CCCCC1 (centres undefined)
inactive: 786-0 47.4 µM | COLO 205 16.8 µM | HCT-116 14.7 µM | HT-29 42.1 µM | Hs-578T 40.9 µM | LOX IMVI 22 µM | MCF7 37.7 µM | Malme-3M 58.2 µM | NCI-H522 34.6 µM | OVCAR-5 54.8 µM | OVCAR-8 60.4 µM | PC-3 10.6 µM | RPMI-8226 6.9 µM | SF-295 25.5 µM | SF-539 69.3 µM | SK-MEL-28 > 62.1 µM | UACC-257 11.9 µM | UO-31 13 µM

COc1ccc2c(c1)N=C1CSC(c3cc([N+](=O)[O-])ccc3Cl)N1C2 (centres undefined)
inactive: 786-0 26.2 µM | COLO 205 30.1 µM | HCT-116 20.1 µM | HT-29 23.6 µM | Hs-578T 39.8 µM | LOX IMVI 33 µM | MCF7 14.8 µM | Malme-3M 23.2 µM | NCI-H522 21.5 µM | OVCAR-5 24 µM | OVCAR-8 29 µM | PC-3 21.5 µM | RPMI-8226 17.4 µM | SF-295 30.5 µM | SF-539 28.5 µM | SK-MEL-28 17.2 µM | UACC-257 15.8 µM | UO-31 19.6 µM
